Experiments:
[1] = system: normal NK cells expanded with K562-aAPC; experiment: percent inhibition of viability; higher = more inhibition; conditions: 72 h, IL-2 2.5 ng/mL
Procedure: (§1)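 Drug sensitivity and resistance testing on K562-aAPC-expanded normal NK cells: 5 concentrations (10-fold steps over a 10,000-fold range), 72 h at 37 °C, viability by CellTiter-Glo normalised to DMSO and benzethonium chloride controls; DSS from the fitted curve.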

[2] = system: IMC-1 (IL-2 20 ng/mL); experiment: as above; conditions: 72 h
[3] = system: normal primary NK cells, pool 2 (3 donors) (IL-2 2.5 ng/mL); experiment: as above; conditions: 72 h
[4] = system: normal primary NK cells, pool 3 (3 donors) (IL-2 2.5 ng/mL); experiment: as above; conditions: 72 h
[5] = system: normal NK cells expanded with K562-aAPC; experiment: drug sensitivity score (DSS) (DSS units); higher = more sensitive; extreme values may be limits of the assay; conditions: 72 h; IL-2 2.5 ng/mL
Procedure: as §1

[6] = system: IMC-1 (IL-2 20 ng/mL); experiment: as above; conditions: 72 h
[7] = system: normal primary NK cells, pool 2 (3 donors) (IL-2 2.5 ng/mL); experiment: as above; conditions: 72 h
[8] = system: normal primary NK cells, pool 3 (3 donors) (IL-2 2.5 ng/mL); experiment: as above; conditions: 72 h

SMILES	percent inhibition of viability ([1]; 1 nM) [%]	percent inhibition of viability ([1]; 10 nM) [%]	percent inhibition of viability ([1]; 100 nM) [%]	percent inhibition of viability ([1]; 1000 nM) [%]	percent inhibition of viability ([1]; 10000 nM) [%]	percent inhibition of viability ([2]; 1 nM) [%]	percent inhibition of viability ([2]; 10 nM) [%]	percent inhibition of viability ([2]; 100 nM) [%]	percent inhibition of viability ([2]; 1000 nM) [%]	percent inhibition of viability ([2]; 10000 nM) [%]	percent inhibition of viability ([3]; 1 nM) [%]	percent inhibition of viability ([3]; 10 nM) [%]	percent inhibition of viability ([3]; 100 nM) [%]	percent inhibition of viability ([3]; 1000 nM) [%]	percent inhibition of viability ([3]; 10000 nM) [%]	percent inhibition of viability ([4]; 1 nM) [%]	percent inhibition of viability ([4]; 10 nM) [%]	percent inhibition of viability ([4]; 100 nM) [%]	percent inhibition of viability ([4]; 1000 nM) [%]	percent inhibition of viability ([4]; 10000 nM) [%]	drug sensitivity score [5]	drug sensitivity score [6]	drug sensitivity score [7]	drug sensitivity score [8]	percent inhibition of viability ([1]; 100000 nM) [%]	percent inhibition of viability ([2]; 100000 nM) [%]	percent inhibition of viability ([3]; 100000 nM) [%]	percent inhibition of viability ([4]; 100000 nM) [%]	percent inhibition of viability ([1]; 1000000 nM) [%]	percent inhibition of viability ([2]; 1000000 nM) [%]	percent inhibition of viability ([3]; 1000000 nM) [%]	percent inhibition of viability ([4]; 1000000 nM) [%]
Cc1cnc(Nc2ccc(OCCN3CCCC3)cc2)nc1Nc1cccc(S(=O)(=O)NC(C)(C)C)c1 [Fedratinib] (max concentration tested 10000 nM)	-1.65	-2.82	11.2	73.8	101	-6.81	-6.37	-28.8	55	101	-1.22	-4.41	13.2	72.5	100	-3.74	-2.87	15.8	68.8	100	15.3	12.1	15.3	14.9	–	–	–	–	–	–	–	–
O=C(O)C1(C(=O)O)CCC1.[NH2-].[NH2-].[Pt+2] [Carboplatin] (max concentration tested 100000 nM)	–	-8.39	-5.27	0.62	19.3	–	-6.21	-0.67	1.27	61.7	–	1.54	-0.94	13	16.1	–	-8.77	-1.51	10.8	18.1	8.66	12.8	5.27	5.79	100	100	60.8	64.7	–	–	–	–
CCCC(CCC)C(=O)O [Valproic acid] (max concentration tested 1000000 nM)	–	–	-5.06	-5.78	-6.14	–	–	-0.33	-1.48	-8.1	–	–	-3.47	-9.08	-3.52	–	–	-5.69	-8.36	-12.2	2	0.34	1.5	0.1	2.07	-1.23	0.62	-3.8	35.9	17.4	31.7	14.2
CC[C@H](C)C(=O)O[C@H]1C[C@H](O)C=C2C=C[C@H](C)[C@H](CC[C@@H](O)C[C@@H](O)CC(=O)O)[C@H]21 [Pravastatin] (max concentration tested 10000 nM)	-2.35	-3.35	0.49	5.71	4.92	1.44	3.55	-0.89	2.49	1.04	-8.99	-4.79	10.9	-9.05	10.6	-14.4	-6.44	1.67	-7.95	-0.67	0	0	0	0	–	–	–	–	–	–	–	–
CC(=O)O[C@]1(C(C)=O)CC[C@H]2[C@@H]3C=C(C)C4=CC(=O)CC[C@]4(C)[C@H]3CC[C@@]21C [Megestrol acetate] (max concentration tested 10000 nM)	-2.74	-5.98	7.94	13.9	28.7	-3.51	-1.23	-4.32	-2.13	10.4	-3.39	3.68	-0.74	11.2	49.3	-8.34	-5.63	0.83	2.52	24.3	2.54	0	4.38	1.28	–	–	–	–	–	–	–	–
COc1cc(C(=O)O)ccc1NC(=O)[C@@H]1N[C@@H](CC(C)(C)C)[C@](C#N)(c2ccc(Cl)cc2F)[C@H]1c1cccc(Cl)c1F [Idasanutlin] (max concentration tested 10000 nM)	6.65	13.4	39.6	95.2	101	-3	0.8	-0.27	12.7	40.4	-8.25	-4.67	32.8	82.7	97.8	-6.26	-3.17	33.5	68.8	95.6	21.9	3.88	19.3	17	–	–	–	–	–	–	–	–
Nc1nc2[nH]cc(CCc3ccc(C(=O)N[C@@H](CCC(=O)O)C(=O)O)cc3)c2c(=O)[nH]1 [Pemetrexed] (max concentration tested 10000 nM)	-3.65	-7.62	29.1	32.5	32.7	-2.55	-0.76	27.5	93	94.2	-0.42	-8.75	-3.95	-3.15	-2.1	-6.87	-6.65	-7.52	-11.4	-7.17	8.95	20.9	0	0	–	–	–	–	–	–	–	–
C[C@]12CC[C@@H]3c4ccc(OC(=O)N(CCCl)CCCl)cc4CC[C@H]3[C@@H]1CC[C@@H]2O [Estramustine] (max concentration tested 10000 nM)	-5.93	-3.58	-7.28	-7.29	-6.53	-0.43	-1.35	-3.43	-6.09	-6.87	10	-2.77	-6.62	-4.76	-8.48	-8.4	-4.19	-7.49	-10.1	-9.53	0	0	0	0	–	–	–	–	–	–	–	–

— the supplement of paper PMC5908809
